Columns and labels:
Assay in all cases: relative viability (nuclei count vs DMSO), 5 days (fraction); higher = more cells survive
NCI-H2405 = tested on: NCI-H2405
Method in brief: (§1)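 One day after seeding in 1536-well plates, lung cancer cell lines were dosed by pin tool. Dosing was either single-drug or a fixed anchor-drug dose plus five library-drug doses (not always all listed) in √10 steps. After 5 days, nuclei were stained in one fix-and-stain step and counted on 4× images, and relative viability is the nuclei count of treated wells over that of vehicle wells, given as the median of duplicate plates.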

NCI-H838 = tested on: NCI-H838
Method in brief: as §1

HCC-366 = tested on: HCC-366
Method in brief: as §1

NCI-H2347 = tested on: NCI-H2347
Method in brief: as §1

NCI-H727 = tested on: NCI-H727
Method in brief: as §1

BEN = tested on: BEN
Method in brief: as §1

NCI-H1666 = tested on: NCI-H1666
Method in brief: as §1

201T = tested on: 201T
Method in brief: as §1

UMC-11 = tested on: UMC-11
Method in brief: as §1

NCI-H2009 = tested on: NCI-H2009
Method in brief: as §1

HCC-44 = tested on: HCC-44
Method in brief: as §1

ABC-1 = tested on: ABC-1
Method in brief: as §1

NCI-H1355 = tested on: NCI-H1355
Method in brief: as §1

NCI-H520 = tested on: NCI-H520
Method in brief: as §1

NCI-H358 = tested on: NCI-H358
Method in brief: as §1

HCC-78 = tested on: HCC-78
Method in brief: as §1

LOU-NH91 = tested on: LOU-NH91
Method in brief: as §1

SW 1573 = tested on: SW 1573
Method in brief: as §1

NCI-H1734 = tested on: NCI-H1734
Method in brief: as §1

NCI-H1650 = tested on: NCI-H1650
Method in brief: as §1

LK-2 = tested on: LK-2
Method in brief: as §1

NCI-H1755 = tested on: NCI-H1755
Method in brief: as §1

For O=C(O)CCCCC(CCSCc1ccccc1)SCc1ccccc1 (centres undefined) [CPI-613] + Nc1ncn([C@H]2C[C@H](O)[C@@H](CO)O2)c(=O)n1 [Decitabine] (partner 2 µM), the relative viability (NCI-H2405; first compound 5 µM) was 0.754, the relative viability (NCI-H2405; first compound 15.81 µM) was 0.72 and the relative viability (NCI-H2405; first compound 50 µM) was 0.709. For the same molecule, the relative viability (NCI-H2405; first compound 158.11 µM) was 0.674, the relative viability (NCI-H2405; first compound 500 µM) was 0.535 and the relative viability (NCI-H838; first compound 5 µM) was 0.449. The relative viability (NCI-H838; first compound 15.81 µM) was 0.437, the relative viability (NCI-H838; first compound 50 µM) was 0.386 and the relative viability (NCI-H838; first compound 158.11 µM) was 0.253. It also gave a relative viability (NCI-H838; first compound 500 µM) of 0.104, a relative viability (HCC-366; first compound 5 µM) of 0.339 and a relative viability (HCC-366; first compound 15.81 µM) of 0.31. It also gave a relative viability (HCC-366; first compound 50 µM) of 0.381, a relative viability (HCC-366; first compound 158.11 µM) of 0.202 and a relative viability (HCC-366; first compound 500 µM) of 0.0146. For the same molecule, the relative viability (NCI-H2347; first compound 5 µM) was 0.652, the relative viability (NCI-H2347; first compound 15.81 µM) was 0.553 and the relative viability (NCI-H2347; first compound 50 µM) was 0.706. The relative viability (NCI-H2347; first compound 158.11 µM) was 0.614, the relative viability (NCI-H2347; first compound 500 µM) was 0.347 and the relative viability (NCI-H727; first compound 5 µM) was 0.803. For the same molecule, the relative viability (NCI-H727; first compound 15.81 µM) was 0.786, the relative viability (NCI-H727; first compound 50 µM) was 0.894 and the relative viability (NCI-H727; first compound 158.11 µM) was 0.776. It also gave a relative viability (NCI-H727; first compound 500 µM) of 0.828, a relative viability (BEN; first compound 5 µM) of 0.773 and a relative viability (BEN; first compound 15.81 µM) of 0.649. The relative viability (BEN; first compound 50 µM) was 0.802, the relative viability (BEN; first compound 158.11 µM) was 0.625 and the relative viability (BEN; first compound 500 µM) was 0.608. The relative viability (NCI-H1666; first compound 5 µM) was 0.676, the relative viability (NCI-H1666; first compound 15.81 µM) was 0.601 and the relative viability (NCI-H1666; first compound 50 µM) was 0.798. The relative viability (NCI-H1666; first compound 158.11 µM) was 0.639, the relative viability (NCI-H1666; first compound 500 µM) was 0.509 and the relative viability (201T; first compound 5 µM) was 0.848. For the same molecule, the relative viability (201T; first compound 15.81 µM) was 0.778, the relative viability (201T; first compound 50 µM) was 0.841 and the relative viability (201T; first compound 158.11 µM) was 0.194. For the same molecule, the relative viability (201T; first compound 500 µM) was 0.211, the relative viability (UMC-11; first compound 5 µM) was 0.574 and the relative viability (UMC-11; first compound 15.81 µM) was 0.573. For the same molecule, the relative viability (UMC-11; first compound 50 µM) was 0.611, the relative viability (UMC-11; first compound 158.11 µM) was 0.562 and the relative viability (UMC-11; first compound 500 µM) was 0.544. The relative viability (NCI-H2009; first compound 5 µM) was 0.393, the relative viability (NCI-H2009; first compound 15.81 µM) was 0.397 and the relative viability (NCI-H2009; first compound 50 µM) was 0.385. The relative viability (NCI-H2009; first compound 158.11 µM) was 0.228, the relative viability (NCI-H2009; first compound 500 µM) was 0.0406 and the relative viability (HCC-44; first compound 5 µM) was 0.877. For the same molecule, the relative viability (HCC-44; first compound 15.81 µM) was 1.01, the relative viability (HCC-44; first compound 50 µM) was 0.922 and the relative viability (HCC-44; first compound 158.11 µM) was 0.828. It also gave a relative viability (HCC-44; first compound 500 µM) of 0.779, a relative viability (ABC-1; first compound 5 µM) of 1.18 and a relative viability (ABC-1; first compound 15.81 µM) of 1.28. For the same molecule, the relative viability (ABC-1; first compound 50 µM) was 1.37, the relative viability (ABC-1; first compound 158.11 µM) was 0.698 and the relative viability (ABC-1; first compound 500 µM) was 0.864. The relative viability (NCI-H1355; first compound 5 µM) was 0.34, the relative viability (NCI-H1355; first compound 15.81 µM) was 0.337 and the relative viability (NCI-H1355; first compound 50 µM) was 0.342. For the same molecule, the relative viability (NCI-H1355; first compound 158.11 µM) was 0.341, the relative viability (NCI-H1355; first compound 500 µM) was 0.114 and the relative viability (NCI-H520; first compound 5 µM) was 0.48. It also gave a relative viability (NCI-H520; first compound 15.81 µM) of 0.502, a relative viability (NCI-H520; first compound 50 µM) of 0.428 and a relative viability (NCI-H520; first compound 158.11 µM) of 0.271. For the same molecule, the relative viability (NCI-H520; first compound 500 µM) was 0.149, the relative viability (NCI-H358; first compound 5 µM) was 0.235 and the relative viability (NCI-H358; first compound 15.81 µM) was 0.2. For the same molecule, the relative viability (NCI-H358; first compound 50 µM) was 0.219, the relative viability (NCI-H358; first compound 158.11 µM) was 0.136 and the relative viability (NCI-H358; first compound 500 µM) was 0.02. For the same molecule, the relative viability (HCC-78; first compound 15.81 µM) was 0.709, the relative viability (HCC-78; first compound 50 µM) was 0.836 and the relative viability (HCC-78; first compound 158.11 µM) was 0.691. For the same molecule, the relative viability (HCC-78; first compound 500 µM) was 0.742, the relative viability (LOU-NH91; first compound 5 µM) was 0.794 and the relative viability (LOU-NH91; first compound 15.81 µM) was 0.783. It also gave a relative viability (LOU-NH91; first compound 50 µM) of 0.819, a relative viability (LOU-NH91; first compound 158.11 µM) of 0.765 and a relative viability (LOU-NH91; first compound 500 µM) of 0.683. For the same molecule, the relative viability (SW 1573; first compound 5 µM) was 0.437, the relative viability (SW 1573; first compound 15.81 µM) was 0.399 and the relative viability (SW 1573; first compound 50 µM) was 0.498. It also gave a relative viability (SW 1573; first compound 158.11 µM) of 0.207, a relative viability (SW 1573; first compound 500 µM) of 0.0549 and a relative viability (NCI-H1734; first compound 5 µM) of 0.488. For the same molecule, the relative viability (NCI-H1734; first compound 15.81 µM) was 0.46, the relative viability (NCI-H1734; first compound 50 µM) was 0.437 and the relative viability (NCI-H1734; first compound 158.11 µM) was 0.409. It also gave a relative viability (NCI-H1734; first compound 500 µM) of 0.111, a relative viability (NCI-H1650; first compound 5 µM) of 0.475 and a relative viability (NCI-H1650; first compound 15.81 µM) of 0.443. For the same molecule, the relative viability (NCI-H1650; first compound 50 µM) was 0.332, the relative viability (NCI-H1650; first compound 158.11 µM) was 0.169 and the relative viability (NCI-H1650; first compound 500 µM) was 0.0363. The relative viability (LK-2; first compound 5 µM) was 0.336, the relative viability (LK-2; first compound 15.81 µM) was 0.274 and the relative viability (LK-2; first compound 50 µM) was 0.275. The relative viability (LK-2; first compound 158.11 µM) was 0.313, the relative viability (LK-2; first compound 500 µM) was 0.283 and the relative viability (NCI-H1755; first compound 5 µM) was 0.732. For the same molecule, the relative viability (NCI-H1755; first compound 15.81 µM) was 0.738, the relative viability (NCI-H1755; first compound 50 µM) was 0.67 and the relative viability (NCI-H1755; first compound 158.11 µM) was 0.699. It also gave a relative viability (NCI-H1755; first compound 500 µM) of 0.543.
